pIC50: −log10 of the molar value. Bounds are passed on as bounds.

One test concerns the target T1, EGFR (WT) (Homo sapiens, UniProt P00533).
T1 construct: purchased Invitrogen PV3872
Briefly: Omnia continuous-read kinase assay, EGFR (WT). The test is classed as biochemical. The settings on record: read-out: EGFR inhibtion. The source says: (§1) The protocol below describes continuous-read kinase assays to measure inherent potency of compounds against active forms of EGFR (WT) and EGFR (T790M/L858R) enzymes. The mechanics of the assay platform are best described by the vendor (Invitrogen, Carlsbad, Calif.) on their website at the following URL: http://www.invitrogen.com/content.cfm?pageid=11338 or http://www.invitrogen.com/site/us/en/home/Products-and-Services/Applications/Drug-Discovery/Target-and-Lead-Identification-and-Validation/KinaseBiology/KB-Misc/Biochemical-Assays/Omnia-Kinase-Assays.html.
(§2) Briefly, 10× stocks of EGFR-WT (PV3872) from Invitrogen and EGFR-T790M/L858R (40350) from BPS Bioscience, San Diego, Calif., 1.13×ATP (AS001A) and appropriate Tyr-Sox conjugated peptide substrates (KCZI001) were prepared in 1× kinase reaction buffer consisting of 20 mM Tris, pH 7.5, 5 mM MgCl2, 1 mM EGTA, 5 mM β-glycerophosphate, 5% glycerol (10× stock, KB002A) and 0.2 mM DTT (DS001A). 5 μL of each enzyme were pre-incubated in a Corning (#3574) 384-well, white, non-binding surface microtiter plate (Corning, NY) for 30 min. at 27° C. with a 0.5 μL volume of 50% DMSO and serially diluted compounds prepared in 50% DMSO. Kinase reactions were started with the addition of 45 μL of the ATP/Tyr-Sox peptide substrate mix and monitored every 30-90 seconds for 60 minutes at λex360/λem485 in a Synergy^4 plate reader from BioTek (Winooski, Vt.). At the conclusion of each assay, progress curves from each well were examined for linear reaction kinetics and fit statistics (R^2, 95% confidence interval, absolute sum of squares). Initial velocity (0 minutes to ˜30 minutes) from each reaction was determined from the slope of a plot of relative fluorescence units vs time (minutes) and then plotted against inhibitor concentration to estimate IC50 from log [Inhibitor] vs Response, Variable Slope model in GraphPad Prism from GraphPad Software (San Diego, Calif.).
(§3) The EGFR-WT- and EGFR T790M/L858R-modified optimized reagent conditions are: • [EGFR-WT]=5 nM, [ATP]=[…], [Y12-Sox]=[…]; and [EGFR-T790M/L858R]=3 nM, [ATP]=[…], [Y12-Sox]=[…].

A further test has as its target T2, ITK (Homo sapiens, UniProt Q08881).
T2 sequence (Q08881 1-620): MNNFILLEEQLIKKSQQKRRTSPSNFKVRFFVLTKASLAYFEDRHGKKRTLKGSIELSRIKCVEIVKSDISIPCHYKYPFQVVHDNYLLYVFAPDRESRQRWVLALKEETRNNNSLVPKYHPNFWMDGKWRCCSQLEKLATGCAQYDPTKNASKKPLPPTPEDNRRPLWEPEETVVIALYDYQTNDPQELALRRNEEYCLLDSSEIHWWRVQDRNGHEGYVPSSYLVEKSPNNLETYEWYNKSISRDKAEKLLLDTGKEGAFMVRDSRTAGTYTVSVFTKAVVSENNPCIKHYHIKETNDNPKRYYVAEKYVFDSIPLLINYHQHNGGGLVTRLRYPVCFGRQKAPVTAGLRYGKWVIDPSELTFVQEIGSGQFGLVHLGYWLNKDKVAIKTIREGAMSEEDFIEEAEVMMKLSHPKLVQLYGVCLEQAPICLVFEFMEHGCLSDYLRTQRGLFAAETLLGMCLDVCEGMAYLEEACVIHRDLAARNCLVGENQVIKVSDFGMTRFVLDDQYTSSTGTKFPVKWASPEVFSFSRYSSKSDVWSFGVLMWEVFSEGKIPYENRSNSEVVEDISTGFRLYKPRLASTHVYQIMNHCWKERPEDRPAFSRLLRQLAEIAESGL
The experiment in a line: Omnia assay for potency against ITK. The test is classed as biochemical. The settings on record: read-out: ITK inhibition.
Excerpt: as §1, §2
This example describes continuous-read kinase assays to measure inherent potency of compound against active forms of ITK enzymes as described in Example 10 above except that the modified ITK-optimized reagent conditions are: • [ITK]=10 nM, [ATP]=25 μM, [Y6-Sox]=10 μM (ATP KMapp=33 μM).

The next test concerns the target BTK (Homo sapiens, UniProt Q06187). The experiment in a line: Omnia assay for potency against BTK. The test is classed as biochemical. The settings on record: read-out: BTK Inhibition.
Excerpt: as §1, §2
The Omnia Assay Protocol for potency assessment against BTK is performed in a substantially similar manner as that described in Example 25 above except that the modified BTK-optimized reagent conditions are: • [BTK]=5 nM, [ATP]=[…], [Y5-Sox]=[…] (ATP KMapp ˜[…]).

Another test concerns the target T3, EGFR (T790M/L858R) (Homo sapiens, UniProt P00533, L858R/T790M).
T3 construct: purchased BPS Bioscience 40350
The experiment in a line: Omnia continuous-read kinase assay, EGFR (T790M/L858R). The test is classed as biochemical. The conditions noted are these: read-out: EGFR (T790M/L858R) inhibiton.
Excerpt: as §1, §2, §3

The target in a further test is T4, JAK3 (Homo sapiens, UniProt P52333).
T4 sequence (P52333 1-1124): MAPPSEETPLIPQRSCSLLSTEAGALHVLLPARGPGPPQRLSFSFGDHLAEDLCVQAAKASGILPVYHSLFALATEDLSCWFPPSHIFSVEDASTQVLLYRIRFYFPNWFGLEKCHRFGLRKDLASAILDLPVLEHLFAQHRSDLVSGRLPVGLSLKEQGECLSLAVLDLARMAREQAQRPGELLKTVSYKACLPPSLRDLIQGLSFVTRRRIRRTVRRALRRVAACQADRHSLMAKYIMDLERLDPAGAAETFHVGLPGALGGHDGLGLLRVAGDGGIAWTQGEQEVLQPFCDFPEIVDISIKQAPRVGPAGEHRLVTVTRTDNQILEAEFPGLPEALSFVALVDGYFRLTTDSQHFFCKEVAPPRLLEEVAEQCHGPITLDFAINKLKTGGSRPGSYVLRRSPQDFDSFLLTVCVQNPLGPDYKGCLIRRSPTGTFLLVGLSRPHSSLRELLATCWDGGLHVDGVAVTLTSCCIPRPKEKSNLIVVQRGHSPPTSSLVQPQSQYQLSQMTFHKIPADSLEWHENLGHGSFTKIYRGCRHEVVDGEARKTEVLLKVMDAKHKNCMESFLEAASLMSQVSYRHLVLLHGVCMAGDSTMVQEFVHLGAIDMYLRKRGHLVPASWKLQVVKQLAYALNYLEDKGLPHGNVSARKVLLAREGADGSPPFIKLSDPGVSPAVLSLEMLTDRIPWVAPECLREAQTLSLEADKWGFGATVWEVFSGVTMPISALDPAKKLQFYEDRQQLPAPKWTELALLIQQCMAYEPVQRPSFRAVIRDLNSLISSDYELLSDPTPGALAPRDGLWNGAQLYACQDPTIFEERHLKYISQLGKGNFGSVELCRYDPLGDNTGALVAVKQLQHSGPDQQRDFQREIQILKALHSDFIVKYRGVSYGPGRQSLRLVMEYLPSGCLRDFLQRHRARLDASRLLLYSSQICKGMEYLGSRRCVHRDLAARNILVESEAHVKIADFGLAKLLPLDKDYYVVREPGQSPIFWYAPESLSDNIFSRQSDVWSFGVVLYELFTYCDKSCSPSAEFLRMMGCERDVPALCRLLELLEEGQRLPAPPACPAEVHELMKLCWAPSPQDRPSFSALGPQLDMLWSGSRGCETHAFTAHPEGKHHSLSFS
Briefly: Omnia assay for potency against JAK3. In kind it is biochemical. The conditions noted are these: read-out: JAK3 Inhibition.
Excerpt: as §1, §2
The Omnia Assay Protocol for potency assessment against JAK3 is performed in a substantially similar manner as that described in Example 25 above except that the modified JAK3-optimized reagent conditions are: • [JAK3]=5 nM, [ATP]=5 μM, [Y12-Sox]=5 μM (ATP KMapp ˜[…]).

The next test addresses ErbB1 (Homo sapiens, UniProt P00533). The experiment in a line: Z'-LYTE biochemical assay, ErbB1 kinase inhibition. The conditions noted are these: @ 1 μM. As to the method:
Compounds of the present invention were assayed as inhibitors of one or more of ErbB1, ErbB2, and/or ErbB4 in a manner substantially similar to the method described by Invitrogen Corp (Invitrogen Corporation, 1600 Faraday Avenue, Carlsbad, Calif., CA; http://www.invitrogen.com/downloads/Z-LYTE_Brochure—1205.pdf) using the Z′-LYTE™ biochemical assay procedure or similar biochemical assay. The Z′-LYTE™ biochemical assay employs a fluorescence-based, coupled-enzyme format and is based on the differential sensitivity of phosphorylated and non-phosphorylated peptides to proteolytic cleavage.

The test system of test [1] is BTK signaling in Ramos cells. Briefly: BTK Ramos cellular assay (PLCγ2 phosphorylation). The test is classed as cell-based. The conditions noted are these: Homo sapiens; Ramos cells, PLCγ2 phosphorylation; read-out: BTK Inhibition. As to the method:
Compounds 1-13 and (I-52) were assayed in Ramos human Burkitt lymphoma cells. Ramos cells were grown in suspension in T225 flasks, spun down, resuspended in 50 mls serum-free media and incubated for 1 hour. Compound was added to Ramos cells in serum free media to a final concentration of 1, 0.1, 0.01, or 0.001 μM. Ramos cells were incubated with compound for 1 hour, washed again and resuspended in 100 ul serum-free media. Cells were then stimulated with 1 μg of goat F(ab′)2 Anti-Human IgM and incubated on ice for 10 minutes to activate B cell receptor signaling pathways. After 10 minutes, the cells were washed once with PBS and then lysed on ice with Invitrogen Cell Extraction buffer. 16 μg total protein from lysates was loaded on gels and blots were probed for phosphorylation of the BTK substrate PLCγ2. […] Additional dose response inhibition of BTK signaling with I-13 is depicted in FIG. 9.

T3 sequence (P00533 25-1210 T790M/L858R): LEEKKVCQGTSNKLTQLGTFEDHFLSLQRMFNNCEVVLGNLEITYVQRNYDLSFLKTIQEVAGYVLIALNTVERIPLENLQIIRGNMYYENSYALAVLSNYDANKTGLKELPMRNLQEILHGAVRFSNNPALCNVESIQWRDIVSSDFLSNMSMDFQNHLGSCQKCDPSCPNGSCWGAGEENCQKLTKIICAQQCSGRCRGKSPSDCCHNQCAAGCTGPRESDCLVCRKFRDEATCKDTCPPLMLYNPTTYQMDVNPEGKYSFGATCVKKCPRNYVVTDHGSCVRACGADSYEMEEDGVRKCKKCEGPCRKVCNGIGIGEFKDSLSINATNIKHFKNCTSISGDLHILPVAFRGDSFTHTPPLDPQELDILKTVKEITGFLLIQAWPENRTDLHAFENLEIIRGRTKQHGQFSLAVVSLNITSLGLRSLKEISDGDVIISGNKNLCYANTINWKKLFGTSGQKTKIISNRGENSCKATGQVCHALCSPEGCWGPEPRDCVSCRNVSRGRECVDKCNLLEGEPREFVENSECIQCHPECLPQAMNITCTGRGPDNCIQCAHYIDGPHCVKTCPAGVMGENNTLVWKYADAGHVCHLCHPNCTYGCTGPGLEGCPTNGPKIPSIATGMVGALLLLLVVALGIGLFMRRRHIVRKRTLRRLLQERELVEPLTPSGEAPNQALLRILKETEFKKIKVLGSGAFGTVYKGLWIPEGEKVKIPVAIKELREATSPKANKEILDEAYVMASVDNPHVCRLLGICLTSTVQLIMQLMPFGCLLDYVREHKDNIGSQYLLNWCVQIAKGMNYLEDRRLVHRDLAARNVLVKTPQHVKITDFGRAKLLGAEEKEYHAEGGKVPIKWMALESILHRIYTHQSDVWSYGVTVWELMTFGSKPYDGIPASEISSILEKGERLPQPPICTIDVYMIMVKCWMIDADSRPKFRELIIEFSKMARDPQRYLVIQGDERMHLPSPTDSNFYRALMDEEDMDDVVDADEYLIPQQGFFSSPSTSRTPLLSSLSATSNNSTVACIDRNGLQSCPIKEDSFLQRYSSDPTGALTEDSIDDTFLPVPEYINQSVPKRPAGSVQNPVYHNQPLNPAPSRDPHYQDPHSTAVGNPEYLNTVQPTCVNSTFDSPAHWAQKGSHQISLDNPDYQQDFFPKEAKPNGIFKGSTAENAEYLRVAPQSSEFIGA
BTK, sequence (Q06187 whole entry): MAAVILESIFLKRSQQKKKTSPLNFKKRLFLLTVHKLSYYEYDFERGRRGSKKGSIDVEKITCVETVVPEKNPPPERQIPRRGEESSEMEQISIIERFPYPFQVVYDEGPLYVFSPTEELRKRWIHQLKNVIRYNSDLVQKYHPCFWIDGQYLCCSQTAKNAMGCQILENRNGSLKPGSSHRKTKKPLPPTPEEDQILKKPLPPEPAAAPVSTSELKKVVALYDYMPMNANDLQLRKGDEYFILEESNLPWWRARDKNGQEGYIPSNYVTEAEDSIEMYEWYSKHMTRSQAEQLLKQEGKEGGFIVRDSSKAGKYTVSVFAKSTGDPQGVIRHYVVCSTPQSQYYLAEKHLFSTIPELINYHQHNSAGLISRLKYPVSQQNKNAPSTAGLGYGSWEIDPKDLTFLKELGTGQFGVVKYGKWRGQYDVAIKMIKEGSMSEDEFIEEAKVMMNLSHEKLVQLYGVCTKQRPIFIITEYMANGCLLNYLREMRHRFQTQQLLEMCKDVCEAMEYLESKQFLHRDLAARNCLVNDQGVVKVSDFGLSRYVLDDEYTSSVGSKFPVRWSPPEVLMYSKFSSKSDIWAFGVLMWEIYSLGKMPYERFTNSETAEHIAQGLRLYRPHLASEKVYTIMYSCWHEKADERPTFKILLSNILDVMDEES
T1 sequence (P00533 25-1210): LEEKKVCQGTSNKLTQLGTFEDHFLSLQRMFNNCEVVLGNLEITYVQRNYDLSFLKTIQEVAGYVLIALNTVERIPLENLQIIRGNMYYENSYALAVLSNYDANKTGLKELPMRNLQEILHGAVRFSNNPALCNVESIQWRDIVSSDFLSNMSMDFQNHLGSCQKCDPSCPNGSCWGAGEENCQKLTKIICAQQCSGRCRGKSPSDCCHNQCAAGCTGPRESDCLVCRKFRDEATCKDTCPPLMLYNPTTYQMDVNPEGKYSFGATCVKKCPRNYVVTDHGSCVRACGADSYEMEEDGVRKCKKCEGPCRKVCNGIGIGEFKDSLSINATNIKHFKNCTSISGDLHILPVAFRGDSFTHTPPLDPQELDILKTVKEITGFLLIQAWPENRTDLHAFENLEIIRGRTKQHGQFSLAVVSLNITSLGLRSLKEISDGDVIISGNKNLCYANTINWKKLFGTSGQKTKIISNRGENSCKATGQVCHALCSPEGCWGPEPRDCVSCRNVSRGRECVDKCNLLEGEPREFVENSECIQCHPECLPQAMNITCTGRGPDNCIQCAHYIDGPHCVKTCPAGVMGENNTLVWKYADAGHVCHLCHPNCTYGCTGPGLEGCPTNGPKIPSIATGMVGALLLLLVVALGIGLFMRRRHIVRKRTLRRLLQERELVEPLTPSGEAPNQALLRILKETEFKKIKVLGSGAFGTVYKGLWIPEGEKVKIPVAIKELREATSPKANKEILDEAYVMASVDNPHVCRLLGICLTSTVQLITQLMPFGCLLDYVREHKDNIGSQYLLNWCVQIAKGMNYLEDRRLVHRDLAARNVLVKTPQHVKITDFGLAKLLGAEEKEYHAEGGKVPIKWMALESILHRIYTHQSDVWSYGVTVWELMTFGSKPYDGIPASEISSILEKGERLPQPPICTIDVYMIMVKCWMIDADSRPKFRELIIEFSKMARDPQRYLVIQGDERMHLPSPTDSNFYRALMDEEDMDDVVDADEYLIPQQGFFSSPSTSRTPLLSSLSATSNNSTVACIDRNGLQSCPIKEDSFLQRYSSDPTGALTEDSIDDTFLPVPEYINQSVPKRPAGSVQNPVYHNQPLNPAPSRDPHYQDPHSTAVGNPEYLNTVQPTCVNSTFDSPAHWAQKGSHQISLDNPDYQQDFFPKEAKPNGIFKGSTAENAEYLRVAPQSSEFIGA
ErbB1, sequence (P00533 25-1210): as above

Take `CC=CC(=O)c1cccc(Nc2cc(Nc3ccc(Oc4ccccc4)cc3)ncn2)c1` (mixture of isomers) [I-89, (E,Z)-1-(3-(6-(4-phenoxyphenylamino)pyrimidin-4-ylamino)phenyl)but-2-en-1-one]: the pIC50 at EGFR (WT) is at least 8.00; at ITK it was 6.00 to 7.00; on BTK, at least 8.00.
The term inhibition denotes the drop in the measured response relative to a control, in per cent. Lower therefore signals little suppression. Regarding `C=CS(=O)(=O)Nc1cccc(Nc2cc(Oc3cccc(C(F)(F)F)c3)ncn2)c1` [I-10], the pIC50 at EGFR (WT) is at least 8.00; on ITK, at most 5.00; at EGFR (T790M/L858R), 6.00 to 7.00; at BTK, 6.00 to 7.00; at JAK3, 6.00 to 7.00. At ErbB1, this compound registered an inhibition at 1 µM of 96%.
`C#Cc1cccc(Nc2cc(Nc3cccc(Br)c3)ncn2)c1` [I-12, N^4-(3-Bromophenyl)-N^6-(3-ethynylphenyl)pyrimidine-4,6-diamine]: the pIC50 at EGFR (WT) is 7.00 to 8.00; on EGFR (T790M/L858R) it was at most 5.00; on BTK, at most 5.00; on JAK3 it was at most 5.00. For the same compound, testing at 1 µM at ErbB1 gave an inhibition of 82%.
Turning to `C=CC(=O)Nc1cccc(Nc2cc(N3CCc4ccccc43)ncn2)c1` [I-14], the pIC50 on EGFR (WT) is at least 8.00; at ITK, 5.00 to 6.00; on EGFR (T790M/L858R) it was 7.00 to 8.00; at BTK, 6.00 to 7.00; on JAK3, at least 8.00. In addition, the inhibition at 1 µM against ErbB1 worked out at 96%.
As for `C=CC(=O)Nc1cccc(Nc2cc(N(C)c3ccccc3)ncn2)c1` [I-15, N-{3-[6-(N-methyl-N-phenylamino)-pyrimidin-4-ylamino]phenyl}-2 propenamide], the pIC50 was at least 8.00 on EGFR (WT); 5.00 to 6.00 at ITK; 7.00 to 8.00 at EGFR (T790M/L858R); 7.00 to 8.00 on BTK; 7.00 to 8.00 at JAK3. Moreover, on ErbB1, the inhibition at 1 µM came out at 98%.
For the compound `C=CC(=O)Nc1cccc(Nc2cc(Oc3cccc(C)c3)ncn2)n1` [I-65)], the pIC50 in test [1] is at least 8.00.
Same read-out and setting: the same measure for `C=CC(=O)Nc1cccc(Nc2cc(Oc3ccc(Oc4ccccc4)cc3)ncn2)n1` [I-66)]: at least 8.00.
Consider `CC#CC(=O)c1cccc(Nc2cc(Nc3ccc(Oc4ccccc4)cc3)ncn2)c1` [I-88, 1-(3-(6-(4-phenoxyphenylamino)pyrimidin-4-ylamino)phenyl)but-2-yn-1-one], for which the figures for the pIC50 on EGFR (WT), on ITK and on BTK were at least 8.00, 7.00 to 8.00 and at least 8.00, respectively.
With `C=CC(=O)Nc1cccc(Nc2cc(Oc3cccc(OC)c3)ncn2)n1` [I-90, N-(6-(6-(3-methoxyphenoxy)pyrimidin-4-ylamino)pyridine-2-yl)acrylamide], the pIC50 on EGFR (WT) was at least 8.00; on ITK it was 6.00 to 7.00; on BTK it was at least 8.00.
With `COc1ccc(NC(=O)/C=C/CN(C)CCCCNC(=O)OC(C)(C)C)cc1Nc1cc(Nc2ccc(F)c(Cl)c2)ncn1` [I-98], the pIC50 is at least 8.00 at EGFR (WT), at most 5.00 at ITK and 6.00 to 7.00 on BTK.
Turning to `C=CC(=O)Nc1cc(Nc2cc(Oc3ccc(Oc4ccccc4)cc3)ncn2)ccc1N1CCOCC1` [I-101, N-(2-morpholino-5-(6-(4-phenoxyphenoxy)pyrimidin-4-ylamino)phenyl)acrylamide], the pIC50 is at least 8.00 on EGFR (WT), 6.00 to 7.00 on ITK and at least 8.00 at BTK.

Source of the values: patent US9296704B2, “Substituted pyrimidines as protein kinase inhibitors” (CELGENE AVILOMICS RESEARCH, INC., priority 2007, dated 2016).
